We go through 14 compounds from article PMC12839014, “Machine Learning-Based Virtual Screening for the Identification of Novel CDK-9 Inhibitors” (Biomolecules, 2025).

The target in one assay is T1, CDK9/cyclin T1 (Homo sapiens, UniProt P50750).
T1 construct: purchased Thermo Fisher Scientific, Madison, WI, USA
Kind of assay: ADAPTA kinase assay (TR-FRET), CDK9 inhibition. The format is biochemical. To be noted: for IC50: CDK9 inhibitory activity. As for the experimental part: The inhibitory activity of the compounds identified by the VS was evaluated against CDK9/cyclin T1 using the fluorescence-based ADAPTA kinase assay (Thermo Fisher Scientific, Madison, WI, USA). The assay quantifies ADP generated during the kinase reaction through a competitive immunoassay employing a TR-FRET detection system. In the presence of an inhibitor, ADP formation by the kinase is reduced, leading to preservation of the antibody–tracer complex and a corresponding increase in the TR-FRET signal. Inhibitory potency was expressed as IC50 values, determined from logistic dose–response curves with 10 concentration points, each representing the average of two independent experiments.

In the next assay the test system is MCF-7 cells. Kind of assay: Cell viability assay (SRB), MCF-7. The format is cell-based. To be noted: 72 h; for cell viability (antiproliferative effect): MCF-7, single agent, SRB. As to the method: (§1) HeLa, MCF-7, and MDA-MB-231 cells were seeded in triplicate into 96-well plates at densities of 1500, 3500, and 3000 cells per well, respectively, and allowed to adhere for 24 h. After 72 h of incubation, cells were fixed with 10% (v/v) trichloroacetic acid (TCA) and subsequently stained with 0.4% (w/v) sulforhodamine B (SRB) dissolved in 1% (v/v) acetic acid. Cell viability was quantified and expressed as a percentage relative to untreated control cells, which were normalized to 100%. Data represent the mean ± standard deviation (SD) from three independent experiments (n = 3). Statistical significance was determined using one-way ANOVA or Student’s t-test, followed by appropriate multiple-comparison post hoc tests to evaluate differences between experimental groups.

The next assay has as its system MDA-MB-231 cells. Kind of assay: Cell viability assay (SRB), MDA-MB-231. The format is cell-based. To be noted: 72 h; for cell viability (antiproliferative effect): MDA-MB-231, single agent, SRB. As to the method:
as §1

In a further assay the test system is HeLa cells. As to the kind of experiment: Cell viability assay (SRB), HeLa. It is filed as cell-based. The note with it: 72 h; for cell viability (antiproliferative effect): single agent, SRB. As to the method: as §1
Assay [1] has as its system HeLa cells transfected with siCTR or siCDK9. As to the kind of experiment: Cell viability in HeLa cells with siRNA-mediated CDK9 knockdown. The format is cell-based. To be noted: 100 nM siCDK9 vs siCTR, 72 h treatment. As to the method:
as §1
Consistently, when CDK9 is depleted, the overall impact of compound 1 is reduced.
Figure S2. HeLa cells were transfected with 100 nM of siCTR or siCDK9. After 24 hours of incubation, the cells were plated for the indicated treatment time points and incubated for an additional 24 hours, followed by treatment with the speciﬁed drug concentrations for another 72 hours. Results are presented as the mean ± SD from three independent experiments. *p< […], **p< 0.01, *** p < 0.001 and **** p < 0.0001.
(1 picture or pasted object on this page, not shown here)

Assay [2] relates to γH2AX Ser139 foci in HeLa cells. Kind of assay: Immunofluorescence analysis of γ-H2AX foci. The format is cell-based. The note with it: 1 h pretreatment with compound 1, then 2 h CPT, combination vs CPT alone. As to the method:
(§2) HeLa cells were fixed in 4% paraformaldehyde and subsequently permeabilized with 0.2% Triton X-100. Blocking was performed with 1% bovine serum albumin (BSA) for 10 min at room temperature. Cells were then incubated for 1 h at RT with primary antibodies targeting: γH2AX Ser139 (1:200, ab2893, Abcam, Cambridge, UK) or pRPA32 S4/8 (1:200, A300-245A, Bethyl Laboratories, Montgomery, TX, USA). Corresponding secondary antibody conjugated with AlexaFluor 647 donkey anti-rabbit IgG (H + L) was applied. Samples were mounted using ProLong™ Gold Antifade Mountant with DAPI (Thermo Fisher Scientific). High-resolution immunofluorescence imaging was performed on a Zeiss LSM 900 Airyscan2 confocal microscope equipped with a Plan-Apochromat 63×/1.4 NA oil immersion objective. Image acquisition and processing utilized Zen 3.9 software Zeiss, Jena, Germany). Quantification of fluorescent foci per nucleus was conducted using Fiji (ImageJ) software, version 2.14.0/1.54f.
Figure S3. […] Thirty cells were evaluated per condition. Data are expressed as the mean ± standard deviation (SD) from three separate experiments. Statistical signiﬁcance was determined using Welch’s corrected Student’s t-test to account for potential variance diﬀerences between samples. **** p < 0.0001. […]

The test system of assay [3] is pRPA32 S4/8 in HeLa cells. Kind of assay: Immunofluorescence analysis of pRPA32 S4/8 (HR activity). To be noted: 1 h pretreatment with compound 1 or DMSO, then 2 h CPT. It is filed as cell-based. As to the method: as §2
Figure S4. A) HeLa cells were pre-treated with compound 1 (reported as Cmp 1) or DMSO for one hour, followed by incubation with CPT. Thirty cells per condition were analyzed from three independent experiments, with results reported as the standard deviation (SD). Statistical analysis was performed using Welch’s corrected Student’s t-test to account for heteroscedasticity in the data. […]

Setting [4] is: 10 concentration points, average of two independent experiments, read-out: Experimental IC50.

Where two headings read alike, the source gives them in different places. A value given as a limit tells only on which side of the number the result lay.

T1 sequence (P50750 whole entry): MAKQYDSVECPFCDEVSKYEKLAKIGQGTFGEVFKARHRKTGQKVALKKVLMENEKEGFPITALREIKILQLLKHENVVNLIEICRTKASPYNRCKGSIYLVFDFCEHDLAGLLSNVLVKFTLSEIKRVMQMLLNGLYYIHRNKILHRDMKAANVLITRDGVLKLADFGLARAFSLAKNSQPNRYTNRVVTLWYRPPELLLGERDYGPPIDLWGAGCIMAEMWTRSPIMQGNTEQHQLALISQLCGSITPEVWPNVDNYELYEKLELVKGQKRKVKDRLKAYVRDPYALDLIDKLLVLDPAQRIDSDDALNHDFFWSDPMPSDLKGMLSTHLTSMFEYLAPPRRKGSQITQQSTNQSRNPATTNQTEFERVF
T1 sequence (O60563 whole entry partner): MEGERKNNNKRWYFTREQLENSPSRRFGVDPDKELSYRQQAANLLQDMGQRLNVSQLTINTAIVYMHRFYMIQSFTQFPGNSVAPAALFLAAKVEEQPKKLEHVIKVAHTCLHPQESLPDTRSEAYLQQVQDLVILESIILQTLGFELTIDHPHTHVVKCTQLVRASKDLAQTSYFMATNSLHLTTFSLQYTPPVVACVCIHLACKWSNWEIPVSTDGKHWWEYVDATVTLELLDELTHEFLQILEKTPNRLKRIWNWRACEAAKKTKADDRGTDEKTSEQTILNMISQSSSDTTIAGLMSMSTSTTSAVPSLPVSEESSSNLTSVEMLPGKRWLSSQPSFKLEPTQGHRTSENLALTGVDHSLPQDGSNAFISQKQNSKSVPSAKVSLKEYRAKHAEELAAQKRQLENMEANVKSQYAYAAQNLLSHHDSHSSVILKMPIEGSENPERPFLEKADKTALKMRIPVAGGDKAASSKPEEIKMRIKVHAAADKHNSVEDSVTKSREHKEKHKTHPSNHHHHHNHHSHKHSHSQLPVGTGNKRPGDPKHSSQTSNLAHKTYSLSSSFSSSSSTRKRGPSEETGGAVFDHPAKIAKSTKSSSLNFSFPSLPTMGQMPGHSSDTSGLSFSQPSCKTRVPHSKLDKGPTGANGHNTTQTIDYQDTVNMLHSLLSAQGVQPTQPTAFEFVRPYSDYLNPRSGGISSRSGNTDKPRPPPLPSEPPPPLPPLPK

For the compound `COc1cc2c(c3oc(=O)c(CCC(=O)NC4C=CS(=O)(=O)C4)c(C)c13)CCC(C)(C)O2` (centres unmarked) [Compound 5], the 50% inhibitory concentration (IC50) at CDK9/cyclin T1 (setting [4]) was found to be 107 µM.
As for `CCOC(=O)c1sc(NC(=S)Nc2c(C)n(C)n(-c3ccccc3)c2=O)c(C(=O)OCC)c1C` [Compound 2], the “cell viability (antiproliferative effect)” value in the assay with MCF-7 cells, in the assay with MDA-MB-231 cells and with HeLa cells was “less effective at comparable concentrations” each time. The values for the half-maximal inhibitory concentration (IC50) at CDK9/cyclin T1 (setting [4]) and on CDK9/cyclin T1 (read-out: IC50) were 16.8 µM and less than 50 µM, respectively.
Take `CCC(Sc1nc2sc(C(=O)N(C)C)c(C)c2c(=O)n1CCc1ccccc1)C(=O)NC1CCCCC1` (centres unmarked) [Compound 13]: the half-maximal inhibitory concentration (IC50) on CDK9/cyclin T1 (setting [4]) is more than 133 µM.
Consider `Nc1c2c(-c3ccccc3Cl)nc(N3CCCC3)nc2nn1-c1ccc(F)cc1` [Compound 12], for which, on CDK9/cyclin T1 (setting [4]), the IC50 was more than 133 µM.
Still for that read-out and setting: in the case of `Cc1nn(-c2ccc(F)cc2)c2nc(CCC(C)C)nc(N3CCN(C(=O)C4CC4c4ccccc4)CC3)c12` (centres unmarked) [Compound 4] it was 67.2 µM.
In the case of `COc1ccc(F)cc1-c1cc(N2CCN(S(=O)(=O)Cc3ccccc3)CC2)ncn1` [Compound 3], the concentration for half-maximal inhibition (IC50) at CDK9/cyclin T1 (setting [4]) is 28.6 µM; on CDK9/cyclin T1 (read-out: IC50), less than 50 µM.
Turning to `COC(=O)c1c(NC(=O)c2nn3c(C(F)(F)F)cc(-c4ccc(Br)cc4)nc3c2Cl)sc2c1CCCC2` [Compound 14], the IC50 at CDK9/cyclin T1 (setting [4]) is more than 133 µM.
For `Cn1nc(C(=O)N2CCC(c3cc(O)nc(N4CCCC4)n3)C2)c2ccccc21` (centres unmarked) [Compound 9], on CDK9/cyclin T1 (setting [4]), the 50% inhibitory concentration (IC50) is more than 133 µM.
For `O=S(=O)(N1CCCC1)N1CCN(c2ncnc3scc(-c4ccc(F)cc4)c23)CC1` [Compound 6], the IC50 at CDK9/cyclin T1 (setting [4]) worked out at 133 µM.
Regarding `Cc1cc(NC2CCN(c3ncccc3F)C2)nc(C)n1` (centres unmarked) [Compound 10], the IC50 at CDK9/cyclin T1 (setting [4]) was more than 133 µM.
In the case of `CC[C@@]1(O)C(=O)OCc2c1cc1n(c2=O)Cc2cc3ccccc3nc2-1` [CPT, Camptothecin, reference compound], the “cell viability (antiproliferative effect)” value in the assay with MCF-7 cells, in the assay with MDA-MB-231 cells and in the assay with HeLa cells was “detectable cytotoxic effect” throughout.
With `Cc1cc(N2CCC3(NC(=O)c4cccc(C(C)C)n4)CCCC23)nc(CO)n1` (centres unmarked) [Compound 8], at CDK9/cyclin T1 (setting [4]), the IC50 is more than 133 µM.
In the case of `COc1ccc(OC)c(-c2cc(C(=O)NCC3CCN(c4ncccn4)CC3)n(C)n2)c1` [Compound 11], the 50% inhibitory concentration (IC50) at CDK9/cyclin T1 (setting [4]) is more than 133 µM.
Turning to `COc1ccccc1-c1ccnc(NC2CC3CCC(C2)N3C)n1` (centres unmarked) [Compound 1], the “survival of CDK9-depleted cells vs control cells” value in assay [1] is “higher survival”. Also, the “DNA damage response (γ-H2AX foci)” value in assay [2] is listed as “stronger DNA damage response”. Moreover, the “cell viability, combination with CPT” value in the assay on MCF-7 cells (MCF-7, CPT fixed 5 nM + compound 1 1.85–30 µM) was “additive interaction”; in the assay with MCF-7 cells (MCF-7, compound 1 fixed 7.5 µM + CPT 1.25–20 nM), “potentiated the cytotoxic activity of CPT”; with MDA-MB-231 cells (MDA-MB-231, CPT fixed 5 nM + compound 1 1.85–30 µM), “additive interaction”; with MDA-MB-231 cells (MDA-MB-231, compound 1 fixed 7.5 µM + CPT 1.25–20 nM), “potentiated the cytotoxic activity of CPT”; in the assay with HeLa cells (CPT fixed 5 nM + compound 1 1.85–30 µM) it was “additive interaction”; in the assay on HeLa cells (compound 1 fixed 7.5 µM + CPT 1.25–20 nM) it was “potentiated the cytotoxic activity of CPT”. The “cell viability (antiproliferative effect)” value in the assay on MCF-7 cells, in the assay with MDA-MB-231 cells and with HeLa cells was “stronger antiproliferative activity” throughout. For the same compound, the 50% inhibitory concentration (IC50) is 3.51 µM on CDK9/cyclin T1 (setting [4]) and less than 50 µM at CDK9/cyclin T1 (read-out: IC50). On CDK9/cyclin T1 (in vitro enzymatic assays), the “potency of compound 1 relative to compound 2” value was “five-fold”. Also, the “pRPA32 S4/8 signal (HR activity)” value in assay [3] is recorded as “no significant changes in pRPA32 signal”.
